Test results published in PubChem BioAssay (NCI).
Several values for one entry are separate records, joined by “and”; a condition that tells them apart may be missing. Identical values can stand only once.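 Following 48 hours of exposure in 96-well plates, responses at five concentrations were used to interpolate endpoints linearly. Here, GI50 denotes the concentration required for 50% inhibition of growth. TGI marks complete inhibition of growth.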

Assays:
Assay in all cases: NCI tumour cell line growth inhibition, 48 h
U251 CNS = test system: U251 CNS
HT29 colon = test system: HT29 colon
HOP-92 NSCLC = test system: HOP-92 NSCLC
NCI-H226 lung = test system: NCI-H226 lung
TK-10 renal = test system: TK-10 renal
HCT-116 colon = test system: HCT-116 colon
SNB-75 CNS = test system: SNB-75 CNS
HOP-62 NSCLC = test system: HOP-62 NSCLC
SR leukemia = test system: SR leukemia
NCI-H522 lung = test system: NCI-H522 lung

| SMILES | GI50 (U251 CNS) | TGI (U251 CNS) | GI50 (HT29 colon) | TGI (HT29 colon) | GI50 (HOP-92 NSCLC) | TGI (HOP-92 NSCLC) | GI50 (NCI-H226 lung) | TGI (NCI-H226 lung) | GI50 (TK-10 renal) | TGI (TK-10 renal) | GI50 (HCT-116 colon) | TGI (HCT-116 colon) | GI50 (SNB-75 CNS) | TGI (SNB-75 CNS) | GI50 (HOP-62 NSCLC) | TGI (HOP-62 NSCLC) | GI50 (SR leukemia) | TGI (SR leukemia) | GI50 (NCI-H522 lung) | TGI (NCI-H522 lung) |
| --- | --- | --- | --- | --- | --- | --- | --- | --- | --- | --- | --- | --- | --- | --- | --- | --- | --- | --- | --- | --- |
| O=c1[nH]c2ccccc2cc1-c1nnc(Cc2ccccc2)o1 | 4.12 µM | 14.9 µM | 3.78 µM | 12.9 µM | 3.34 µM | 15.3 µM | 11.5 µM | 94.4 µM | 5.23 µM | 16 µM | 1.41 µM | 3.1 µM | 6.07 µM | 21.4 µM | 12.6 µM | 34.3 µM | 2.03 µM | 10.9 µM | 2.27 µM | 5.9 µM |
| N=C(N)n1cc(/C=N/N=C(N)N)cn1 |  | > 100 µM |  | > 100 µM |  | > 100 µM |  | > 100 µM |  | > 100 µM |  | > 100 µM |  | > 100 µM |  | > 100 µM |  | > 100 µM |  | > 100 µM |
| OCC1OC(OC2(CO)OC(CO)C(O)C2O)C(O)C(O)C1O (configuration not stated) | > 100 µM | > 100 µM | > 100 µM | > 100 µM | > 100 µM | > 100 µM | > 100 µM | > 100 µM | > 100 µM | > 100 µM | > 100 µM | > 100 µM | > 100 µM | > 100 µM | > 100 µM | > 100 µM | > 100 µM | > 100 µM | > 100 µM | > 100 µM |
| Nc1ncnc2c1c(-c1ccc(Oc3ccccc3)cc1)nn2CC1SSCC1O (configuration not stated) | 4.31 µM | 9.66 µM | 1.27 µM | 6.36 µM | 1.72 µM | 8.23 µM | 3.7 µM | 9.91 µM | 1.91 µM | 6.34 µM | 0.59 µM | 4.65 µM | 5.79 µM | 14.9 µM | 3.6 µM | 11.1 µM | 0.251 µM | 2.11 µM | 2.62 µM | 9.49 µM |
| Nc1nc(-c2ccccc2)c(CC(=O)O)s1 |  | > 100 µM |  | > 100 µM |  | > 100 µM |  | > 100 µM |  | > 100 µM |  | > 100 µM |  | > 100 µM |  | > 100 µM |  | > 100 µM |  | > 100 µM |
| O=C(CCCCN1CCN(CCCCC(=O)Nc2ccccc2C#C/C=C\C#Cc2ccccc2C(F)(F)F)CC1)Nc1ccccc1C#C/C=C\C#Cc1ccccc1C(F)(F)F | 9.01 µM | 18.9 µM | 7.11 µM | 26.2 µM | 4.14 µM | 11.5 µM | 40.7 µM | > 50 µM | 16.6 µM | 36 µM | 9.18 µM | 17.8 µM | 10.3 µM | 26.9 µM | 12.2 µM | 32 µM | 3.23 µM | 16.6 µM | 9.19 µM | 20.4 µM |
| CCCCCCCCCCCCCC(=O)O[C@H]1CC[C@H](NC(=O)[C@H](OC)[C@H](O)[C@@H](O)[C@H](O)/C=C/C(C)C)C(=O)N(C)C1 | < 0.0015 µM | 15 µM and 3.06 µM | 0.00238 µM | 15 µM and 3.07 µM |  | 0.0541 µM | 0.544 µM |  | 0.05 µM | 15 µM and > 23.8 µM |  | 15 µM and 2.46 µM | 0.0217 µM | 15 µM and > 23.8 µM | > 23.8 µM | 15 µM and > 23.8 µM |  | 2.46 µM | 0.00689 µM | 0.269 µM and 0.168 µM |
| O=C(Nc1nc(=S)[nH][nH]1)C(=O)C(c1cnc2ccc([N+](=O)[O-])cc2n1)[N+](=O)[O-] (configuration not stated) |  | > 100 µM |  | > 100 µM |  | > 100 µM |  | > 100 µM |  | > 100 µM |  | > 100 µM |  | > 100 µM |  | > 100 µM |  | > 100 µM |  | > 100 µM |
| O=C(O)c1ccccc1C(=O)c1ccco1 |  | > 100 µM |  | > 100 µM |  | > 100 µM |  | > 100 µM |  | > 100 µM |  | > 100 µM |  | > 100 µM |  | > 100 µM |  | > 100 µM |  | > 100 µM |
| CCc1ccc(Oc2c(-c3ccc(OCc4ccc(Cl)cc4)cc3O)nn(C)c2C(F)(F)F)cc1 | 0.357 µM | 1.36 µM | 0.58 µM | 2.11 µM | 0.324 µM | 1.77 µM | 1.18 µM | 3.6 µM | 1.23 µM | 3.18 µM | 0.259 µM | 1.1 µM | 1.34 µM | 4.49 µM | 1.34 µM | 2.83 µM | 0.502 µM | 3.76 µM | 0.303 µM | 1.94 µM |
| C/C(CCN(C)C)=N/O |  | 14.6 µM |  | 10.3 µM |  | 25.5 µM |  | 63.9 µM |  | 20.2 µM |  | 12.5 µM |  | 33 µM |  | 57 µM |  | 5.67 µM |  | 2.55 µM |
| CO[C@H]1C(=O)[C@]2(C)[C@@H](OC)C[C@H]3OC[C@@]3(OC(C)=O)[C@H]2[C@H](OC(=O)c2ccccc2)[C@]2(O)C[C@H](OC(=O)[C@H](O)[C@@H](NC(=O)OC(C)(C)C)c3ccccc3)C(C)=C1C2(C)C | < 0.01 µM | 23.8 µM | < 0.01 µM | 11.5 µM |  | 33 µM | 2.09 µM | 39.7 µM | < 0.01 µM | 31.3 µM | < 0.01 µM | 21.2 µM | < 0.01 µM | < 0.01 µM | < 0.01 µM | > 80.4 µM | < 0.01 µM |  |  |  |
| COc1ccc([C@@]23Oc4cc(OC)cc(OC)c4[C@]2(O)[C@H](O)[C@H](C(=O)N(C)C)[C@H]3c2ccccc2)cc1 | 0.0157 µM |  |  |  | 0.0304 µM | 0.0741 µM and 0.4 µM |  |  | 0.0484 µM | 0.0531 µM and 0.15 µM and 0.435 µM |  |  | 0.0149 µM |  | 0.0152 µM |  | 0.016 µM |  | 0.0179 µM |  |
| Cc1cc(NC(=O)NC(=O)c2ccccc2NC(=O)CN(C)C)ccc1Oc1ncc(Br)cn1 |  | > 86.6 µM |  | 31.1 µM |  | > 100 µM |  | > 92.7 µM |  | > 100 µM |  | > 79.4 µM |  | 37.2 µM |  | > 76.4 µM |  | > 79.5 µM |  | 10.3 µM |
| C/C(=N\NC(=S)N1CCC1)c1ccccn1 | 0.00725 µM | > 82.6 µM | 0.00471 µM | 34.5 µM | 0.0351 µM | 47.9 µM | 0.0117 µM | 3.48 µM | 0.00375 µM | > 79.3 µM | 0.00278 µM | 52.2 µM |  | > 29.9 µM | 0.0223 µM | > 33.9 µM | 0.00819 µM |  | 0.00976 µM | > 45.9 µM |
| O=C([O-])c1ccc([I+]c2ccccc2)cc1 |  | > 100 µM |  | > 100 µM |  | > 100 µM |  | > 100 µM |  | > 100 µM |  | > 100 µM |  | > 100 µM |  | > 100 µM |  | > 100 µM |  | > 100 µM |
| CCOC(=O)C[C@@]12CCCN[C@]1(C)CCc1ccccc12 |  | > 100 µM |  | > 100 µM |  | > 100 µM |  |  |  | > 100 µM |  | > 100 µM |  | > 100 µM |  | > 100 µM |  | > 100 µM |  | > 100 µM |
| O=C(CI)NC(=O)NC(=O)NCc1ccccc1 | 13.6 µM | 27.1 µM | 2.66 µM | 6.72 µM | 1.71 µM | 6.29 µM | 4.53 µM | 20.4 µM | 1.86 µM | 4.12 µM | 3.39 µM | 12.6 µM | 11.3 µM | 29.2 µM | 18.5 µM | 42 µM | 0.804 µM | 3.1 µM | 1.62 µM | 3.52 µM |
| CC[n+]1c(-c2ccccc2)c2cc(N)ccc2c2ccc(N)cc21 | 0.399 µM | 10.2 µM and 20.7 µM | 1.64 µM | 9.45 µM and 29 µM | 1.24 µM | 10.6 µM and 14.6 µM | 0.504 µM and 0.723 µM and 2.65 µM | 4.55 µM and 5.64 µM and 13.5 µM | 2.38 µM | 19.7 µM and 68.8 µM | 1.71 µM | 12.7 µM and 25.3 µM and 26.6 µM | 1.29 µM | 3.16 µM and 1.14 µM | 0.863 µM and 7.4 µM and 2.38 µM |  | 0.801 µM and 1.69 µM and 4.08 µM | > 100 µM and 13 µM |  | 2.54 µM and 8.58 µM and 23.2 µM |
| C/C(=C/CCC(C)[C@@H]1CC[C@]2(C)C3=C(CC[C@@]12C)[C@@]1(C)CCC(=O)C(C)(C)[C@@H]1CC3)C(=O)O (some centres not stated) | 0.817 µM | 2.29 µM | 1.39 µM | 3.04 µM | 0.783 µM | 2.09 µM | 1.46 µM | 4.56 µM | 1.45 µM | 2.83 µM | 0.858 µM | 2.3 µM | 1.69 µM | 3.22 µM | 1.99 µM | 3.57 µM | 1.14 µM | 2.93 µM | 0.728 µM | 2.21 µM |
| COc1cccc(-c2cc(=O)c3cc(N4CCN(C)CC4)ccc3[nH]2)c1 |  |  | 1.78 µM | 5.68 µM and 5.83 µM | 3.1 µM |  | 2.83 µM |  | 13.5 µM | 94.6 µM | 0.92 µM | > 100 µM | 0.612 µM | 65.1 µM | 10.7 µM | > 100 µM |  | 2.49 µM | 1.02 µM | 4.28 µM and 3.79 µM |
| O=[N+]([O-])/C=C/c1ccc2ccccc2c1 |  | 3.08 µM |  |  |  | 21.1 µM |  | 21.3 µM |  | 25.8 µM |  |  |  | 5.17 µM |  | > 51.5 µM |  | > 100 µM |  | 33.1 µM |
| N#Cc1c(-c2ccccc2)c(-c2ccccc2)cc2c(=O)c3ccc(Cl)cc3[nH]c12 |  | > 100 µM |  | > 100 µM |  | > 100 µM |  | > 100 µM |  | > 100 µM |  | > 100 µM |  | > 100 µM |  | > 100 µM |  | > 100 µM |  |  |
| COCc1cc2c(s1)C(=O)C1=C(C2=O)C2(C=C(Br)C(=O)C(Br)=C2)CCN1 |  | 23.7 µM |  | 12.9 µM |  | 15.1 µM |  | 26.7 µM |  | 32.4 µM |  | 3.11 µM |  | 27.9 µM |  |  |  | 8.35 µM |  | 7.31 µM |
